Earlier results in patent US11059901B2, “Compositions and methods related to xCT antibodies” (AGIL VAX, INC., priority 2017, dated 2021).

How the values were obtained:
[1] = under physiological conditions
[2] = target: T1, xCT (Homo sapiens, UniProt Q9UPY5)
T1 sequence (Q9UPY5 1-501): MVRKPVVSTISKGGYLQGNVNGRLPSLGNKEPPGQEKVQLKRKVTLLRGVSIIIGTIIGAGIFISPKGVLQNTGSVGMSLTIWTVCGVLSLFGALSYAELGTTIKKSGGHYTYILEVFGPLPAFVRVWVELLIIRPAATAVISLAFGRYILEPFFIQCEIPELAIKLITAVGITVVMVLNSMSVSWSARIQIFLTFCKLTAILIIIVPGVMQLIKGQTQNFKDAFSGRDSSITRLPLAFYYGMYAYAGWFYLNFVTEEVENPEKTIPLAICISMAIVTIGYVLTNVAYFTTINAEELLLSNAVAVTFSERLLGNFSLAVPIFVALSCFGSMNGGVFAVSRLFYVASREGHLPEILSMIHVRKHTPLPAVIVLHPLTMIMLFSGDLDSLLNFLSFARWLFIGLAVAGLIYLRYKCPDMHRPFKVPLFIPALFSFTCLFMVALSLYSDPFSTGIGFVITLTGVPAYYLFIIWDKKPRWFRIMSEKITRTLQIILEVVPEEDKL
T1 sequence (P08195 1-529 partner): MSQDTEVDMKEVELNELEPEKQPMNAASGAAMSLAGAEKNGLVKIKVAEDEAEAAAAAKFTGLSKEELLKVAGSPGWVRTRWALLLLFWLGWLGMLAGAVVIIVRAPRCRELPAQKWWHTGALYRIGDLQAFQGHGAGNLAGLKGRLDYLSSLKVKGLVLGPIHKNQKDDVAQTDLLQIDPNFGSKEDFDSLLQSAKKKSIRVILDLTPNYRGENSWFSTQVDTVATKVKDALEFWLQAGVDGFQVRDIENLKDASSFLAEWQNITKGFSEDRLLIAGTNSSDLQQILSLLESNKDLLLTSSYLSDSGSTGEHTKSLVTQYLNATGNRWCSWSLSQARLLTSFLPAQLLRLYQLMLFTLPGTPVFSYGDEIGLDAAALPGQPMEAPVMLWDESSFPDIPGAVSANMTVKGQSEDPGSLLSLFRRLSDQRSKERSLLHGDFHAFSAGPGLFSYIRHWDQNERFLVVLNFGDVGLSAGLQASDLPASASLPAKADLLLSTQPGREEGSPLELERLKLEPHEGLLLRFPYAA

For `O=C(O)c1cc(/N=N/c2ccc(S(=O)(=O)Nc3ccccn3)cc2)ccc1O` [SASP, sulfasalazine], the solubility [1] is given as “insoluble”, the stability [1] is given as “labile” and the metastatic foci ([2]; animal models of breast cancer metastasis) is given as “significant decreases”. For the same compound, the “frequency of CSC” value ([2]; in vivo) was “reductions”.
